In article PMC10574761, “Novel 1,2,3-Triazole-Containing Quinoline–Benzimidazole Hybrids: Synthesis, Antiproliferative Activity, In Silico ADME Predictions, and Docking” (Molecules, 2023) one finds IC50 and melting point data, which are given here for 13 molecules.

Series [1] deals with MRC-5 (human fetal lung fibroblasts, non-tumor). Description: MTT proliferation assay, MRC-5. The following applies: MRC5, 72 h treatment. In kind it is cell-based. The protocol: (§1) The effect of the new synthesized compounds was tested on five human tumor cell lines, HeLa (human cervical adenocarcinoma; from ATCC), CaCo-2 (human colorectal adenocarcinoma), HL-60 (acute promyelocytic leukemia), HuT78 (T-cell lymphoma) and THP-1 (acute monocytic leukemia), and on one non-tumor cell line, MRC-5 (human fetal lung fibroblasts). The MRC-5 cells were used between 24 and 26 passages. The cells were cultured in two different types of media: DMEM (Gibco, EU) and RPMI 1640 (Gibco, EU). Both media were supplemented with 2 mM glutamine, fetal bovine serum (10%; heat inactivated) and antibiotics (100 U penicillin and 0.1 mg streptomycin). RPMI 1640 was additionally supplemented with 10 mM HEPES and 1 mM sodium pyruvate. The cells growing in a monolayer were cultured in DMEM, while the cells growing in suspension were cultured in RPMI 1640. The cells were grown in humidified atmosphere under the conditions of 37 °C/5% CO2 gas in the CO2 incubator (IGO 150 CELLlife^TM, JOUAN, Thermo Fisher Scientific, Waltham, MA, USA).
(§2) Growth-inhibitory activity was assessed using a slightly modified procedure based on the National Cancer Institute’s protocol. Briefly, the cells were seeded in 96-well microtiter plates and incubated for 24 h. They were then treated with 10^−7 to 10^−4 M concentrations of the tested compounds for an additional 72 h. After the treatment period, the effects of the tested compounds on the growth rate of the cells were examined using the MTT assay. Absorbance was measured at 595 nm using a microplate reader. […] The selectivity index was calculated according to the following formula: SI=IC50 value of normal cell line/IC50 value of cancer cell line
(§3) The effect of each concentration was analyzed by plotting the logarithm of the concentration of the evaluated compound against the corresponding percentage inhibition value using least squares.
(In general: Tetrazolium assays rely on reduction of a dye to a coloured formazan, in cell work by metabolically active cells.)

Series [2] relates to THP-1 (acute monocytic leukemia). Description: MTT proliferation assay, THP-1. In kind it is cell-based, human. The following applies: Homo sapiens, THP-1; 72 h treatment, MTT. The method, then:
as §1, §2, §3

Series [3] deals with Hut78 (T-cell lymphoma). Description: MTT proliferation assay, HuT78. Format: cell-based, human. Particulars: Homo sapiens, HuT78; 72 h treatment, MTT. The protocol: as §1, §2, §3
Series [4] deals with HL-60 (acute promyelocytic leukemia). Description: MTT proliferation assay, HL-60. Particulars: Homo sapiens, 72 h treatment. In kind it is cell-based. The method, then: as §1, §2, §3
For series [5], the system named is HeLa (human cervical adenocarcinoma). Description: MTT proliferation assay, HeLa. Format: cell-based. The following applies: 72 h treatment. The method, then:
as §1, §2, §3

The subject of series [6] is CaCo-2 (human colorectal adenocarcinoma). Description: MTT proliferation assay, CaCo-2. In kind it is cell-based. Particulars: 72 h treatment. The method, then: as §1, §2, §3

Usually IC50 stands for the concentration at which inhibition is half-maximal. Regarding `O=c1[nH]cc(F)c(=O)[nH]1` [Compound 5-FU, 5-fluorouracil, reference compound], the IC50 was 54.1 µM in series [1], 76.4 µM in series [2], > 100 µM in series [3] and > 100 µM in series [4].

As a reminder, the melting point is the temperature, or range, at which the solid turns liquid. `Clc1ccc2c(-n3cc(COc4ccc(-c5nc6ccccc6[nH]5)cc4)nn3)ccnc2c1` [Compound 9a, 4-(4-{[4-(1H-benzo[d]imidazol-2-yl)phenoxy]methyl}-1H-1,2,3-triazol-1-yl)-7-chloroquinoline]: the melting point fell in the range of 143 to 145 °C. For the same molecule, the IC50 in series [1] is > 100 µM. For the same molecule, the 50% inhibitory concentration (IC50) in series [5] was > 100 µM. The half-maximal inhibitory concentration (IC50) in series [6] is > 100 µM. Also, the 50% inhibitory concentration (IC50) in series [2] was > 100 µM. Further, the midpoint of inhibition in series [3], the IC50, lay at 100 µM. The half-inhibitory concentration (IC50) in series [4] was > 100 µM.

The molecule `Clc1ccc2[nH]c(-c3ccc(OCc4cn(-c5ccnc6cc(Cl)ccc56)nn4)cc3)nc2c1` [Compound 9b, 7-chloro-4-(4-{[4-(5-chloro-1H-benzo[d]imidazol-2-yl)phenoxy]methyl}-1H-1,2,3-triazol-1-yl)quinoline] showed a melting point of 168 to 170 °C. In series [1], inhibition was half-maximal at 100 µM (IC50). Also, the midpoint of inhibition in series [5], the IC50, lay at 94.1 µM. Further, in series [6], the IC50 was > 100 µM. Besides, in series [2], the concentration for half-maximal inhibition (IC50) was > 100 µM. This molecule had an IC50 in series [3] of 92.9 ± 4.3 µM. The IC50 in series [4] was > 100 µM.

`Cl.Cl.Cl.N=C(N)c1ccc2[nH]c(-c3ccc(OCc4cn(-c5ccnc6cc(Cl)ccc56)nn4)cc3)nc2c1` [Compound 9d, 2-(4-{[1-(7-chloroquinolin-4-yl)-1H-1,2,3-triazol-4-yl]methoxy}phenyl)-1H-benzo[d]imidazol-5-carboximidamide trihydrochloride] yielded a melting point of 240 to 242 °C. For the same molecule, the IC50 in series [1] was > 100 µM. The IC50 in series [5] is > 100 µM. Further, the IC50 in series [6] was > 100 µM. The IC50 in series [2] is > 100 µM. Further, the IC50 in series [3] stood at 2.52 µM. In series [4], the IC50 was > 100 µM.

The molecule `CCCNC(=N)c1ccc2[nH]c(-c3ccc(OCc4cn(-c5ccnc6cc(Cl)ccc56)nn4)cc3)nc2c1.Cl.Cl.Cl` [Compound 9e, 2-(4-{[1-(7-chloroquinolin-4-yl)-1H-1,2,3-triazol-4-yl]methoxy}phenyl)-N-propyl-1H-benzo[d]imidazol-5-carboximidamide trihydrochloride] returned a melting point of 228 to 230 °C. The 50% inhibitory concentration (IC50) in series [1] was > 100 µM. Also, the IC50 in series [5] was > 100 µM. Moreover, the IC50 in series [6] is > 100 µM. In addition, the IC50 in series [2] is > 100 µM. For the same molecule, the 50% inhibitory concentration (IC50) in series [3] amounted to 10.2 µM. 98.3 µM corresponded to half-maximal inhibition in series [4] (IC50).

The molecule `Clc1ccc2c(-n3cc(COc4ccc(-c5nc6ccccc6[nH]5)cc4Br)nn3)ccnc2c1` [Compound 10a, 4-(4-{[4-(1H-benzo[d]imidazol-2-yl)-2-bromophenoxy]methyl}-1H-1,2,3-triazol-1-yl)-7-chloroquinoline] returned a melting point of 252 to 254 °C. The IC50 in series [1] was determined as 52.1 µM. In series [5], the 50% inhibitory concentration (IC50) was determined as 10 µM. The molecule further yielded a half-maximal inhibitory concentration (IC50) in series [6] of 63.8 µM. Moreover, 9.6 µM corresponded to half-maximal inhibition in series [2] (IC50). Further, in series [3], the IC50 is 5.88 µM. Besides, the IC50 in series [4] is 76.1 µM.

As to `Clc1ccc2[nH]c(-c3ccc(OCc4cn(-c5ccnc6cc(Cl)ccc56)nn4)c(Br)c3)nc2c1` [Compound 10b, 4-(4-{[2-bromo-4-(5-chloro-1H-benzo[d]imidazol-2-yl)phenoxy]methyl}-1H-1,2,3-triazol-1-yl)-7-chloroquinoline], the IC50 in series [1] is > 100 µM; in series [5] it was 8.11 µM; in series [6], 10.9 µM; in series [2], 10.6 µM; in series [3] it was 6.43 µM; in series [4] it was 55.2 µM.

`COc1ccc2[nH]c(-c3ccc(OCc4cn(-c5ccnc6cc(Cl)ccc56)nn4)c(Br)c3)nc2c1` [Compound 10c, 4-(4-{[2-bromo-4-(5-methoxy-1H-benzo[d]imidazol-2-yl)phenoxy]methyl}-1H-1,2,3-triazol-1-yl)-7-chloroquinoline] returned a melting point of 170 to 172 °C. This molecule also displayed an IC50 in series [1] of 8.54 µM. Moreover, the IC50 in series [5] turned out to be 9.86 µM. In series [6], the IC50 stood at 9.92 µM. Besides, half-maximal inhibition in series [2] (IC50) required 6.23 µM. Further, the IC50 in series [3] was 3.89 µM. For the same molecule, in series [4], the IC50 amounted to 18.2 µM.

`Cl.Cl.Cl.N=C(N)c1ccc2[nH]c(-c3ccc(OCc4cn(-c5ccnc6cc(Cl)ccc56)nn4)c(Br)c3)nc2c1` [Compound 10d, 2-(3-bromo-4-{[1-(7-chloroquinolin-4-yl)-1H-1,2,3-triazol-4-yl]methoxy}phenyl)-1H-benzo[d]imidazol-5-carboximidamide trihydrochloride] had a melting point of 200 to 202 °C. Moreover, the concentration for half-maximal inhibition (IC50) in series [1] was > 100 µM. Moreover, in series [5], the IC50 is > 100 µM. Further, the 50% inhibitory concentration (IC50) in series [6] is > 100 µM. In addition, the IC50 in series [2] was > 100 µM. Besides, the IC50 in series [3] is > 100 µM. Further, in series [4], the concentration for half-maximal inhibition (IC50) is > 100 µM.

`Clc1ccc2c(NCCn3cc(COc4ccc(-c5nc6ccccc6[nH]5)cc4)nn3)ccnc2c1` [Compound 14a, N-[2-(4-{[4-(1H-benzo[d]midazole-2-yl)phenoxy]methyl}-1H-1,2,3-triazol-1-yl)ethyl]-7-chloroquinolin-4-amine] showed a melting point of 221 to 223 °C. In series [1], the IC50 is > 100 µM. The concentration for half-maximal inhibition (IC50) in series [5] is > 100 µM. For the same molecule, in series [6], the IC50 is > 100 µM. Also, the 50% inhibitory concentration (IC50) in series [2] was > 100 µM. In series [3], the IC50 was > 100 µM. Besides, the IC50 in series [4] was > 100 µM.

As for `Clc1ccc2[nH]c(-c3ccc(OCc4cn(CCNc5ccnc6cc(Cl)ccc56)nn4)cc3)nc2c1` [Compound 14b, 7-chloro-N-[2-(4-{[4-(5-chloro-1H-benzo[d]imidazol-2-yl)phenoxy]methyl}-1H-1,2,3-triazol-1-yl)ethyl]quinolin-4-amine], the melting point fell in the range of 213 to 215 °C. For the same molecule, the 50% inhibitory concentration (IC50) in series [1] was > 100 µM. Also, in series [5], the IC50 was > 100 µM. For the same molecule, in series [6], the IC50 was > 100 µM. Also, in series [2], the 50% inhibitory concentration (IC50) is > 100 µM. The IC50 in series [3] is > 100 µM. In series [4], the IC50 was > 100 µM.

The molecule `COc1ccc2[nH]c(-c3ccc(OCc4cn(CCNc5ccnc6cc(Cl)ccc56)nn4)cc3)nc2c1` [Compound 14c, 7-chloro-N-[2-(4-{[4-(5-methoxy-1H-benzo[d]imidazol-2-yl)phenoxy]methyl}-1H-1,2,3-triazol-1-yl)ethyl]quinolin-4-amine] registered a melting point of 150 to 152 °C. For the same molecule, the IC50 in series [1] is > 100 µM. For the same molecule, in series [5], the IC50 was > 100 µM. Further, in series [6], the IC50 is > 100 µM. In series [2], half-maximal inhibition (IC50) was put at 7.31 µM. Further, in series [3], the concentration for half-maximal inhibition (IC50) was > 100 µM. The IC50 in series [4] is > 100 µM.

In the case of `Cl.Cl.Cl.N=C(N)c1ccc2[nH]c(-c3ccc(OCc4cn(CCNc5ccnc6cc(Cl)ccc56)nn4)cc3)nc2c1` [Compound 14d, 2-{4-[(1-{2-[(7-chloroquinolin-4-yl)amino]ethyl}-1H-1,2,3-triazol-4-yl)methoxy]phenyl}-1H-benzo[d]imidazol-5-carboximidamide trihydrochloride], the melting point fell in the range of 227 to 229 °C. Also, the IC50 in series [1] was > 100 µM. Further, the IC50 in series [5] is > 100 µM. Besides, the IC50 in series [6] was > 100 µM. In addition, the IC50 in series [2] is > 100 µM. Also, in series [3], the IC50 was 10.5 µM. For the same molecule, the half-maximal inhibitory concentration (IC50) in series [4] was > 100 µM.
